The target of this assay is human PD-L1 / Human PD-1 (Homo sapiens (Human), UniProt Q9NZQ7). The assay is described as follows: Enzyme-Linked Immunosorbent Assay (ELISA), PD-1/PD-L1 binding. To be noted: plate-coated human PD-L1, biotinylated human PD-1, absorbance at 450 nm. As for the experimental part: 96 Well plates were coated with 1 μg/mL of human PD-L1 (obtained from R&D) in PBS overnight at 4° C. The wells were then blocked with 2% BSA in PBS (W/V) with 0.05% TWEEN-20 for 1 hour at 37° C. The plates were washed 3 times with PBS/0.05% TWEEN-20 and the compounds were serial diluted (1:5) in dilution medium and added to the ELISA plates. Human PD-1 and biotin 0.3 μg/mL (ACRO Biosystems) were added and incubated for 1 hour at 37° C. then washed 3 times with PBS/0.05% TWEEN-20. A second block was performed with 2% BSA in PBS (W/V)/0.05% TWEEN-20 for 10 min at 37° C. and was washed 3 times with PBS/0.05% TWEEN-20. Streptavidin—HRP was added for 1 hour at 37° C. then washed 3 times with PBS/0.05% TWEEN-20. TMB substrate was added and reacted for 20 min at 37° C. A stop solution (2 N aqueous H2SO4) was added. The absorbance was read at 450 nm using a micro-plate spectrophotometer.
Sequence of human PD-L1 / Human PD-1 (Q9NZQ7 19-239): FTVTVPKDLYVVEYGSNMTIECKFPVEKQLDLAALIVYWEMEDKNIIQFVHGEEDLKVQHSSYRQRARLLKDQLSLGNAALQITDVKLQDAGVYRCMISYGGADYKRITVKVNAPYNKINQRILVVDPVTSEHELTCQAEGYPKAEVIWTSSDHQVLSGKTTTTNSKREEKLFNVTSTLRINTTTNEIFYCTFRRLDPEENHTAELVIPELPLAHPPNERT
Compounds in Table 1 were prepared by methods as described in the Examples and evaluated according to the assay above.
On the technique in general: ELISA stands for enzyme-linked immunosorbent assay.

pIC50: −log10 of the molar value.

Consider `Cc1c(COc2cc3c(cc2Cl)CO[C@H](C(=O)O)CCNC(=O)c2cncc(c2)CN3)cccc1-c1ccccc1` [Compound 1.009], for which the pIC50 – broadly, the negative decadic logarithm of the IC50, by convention in mol/L – was 4.70 to 6.30.

For the origin of these results see patent US11059834B2, “Macrocyclic immunomodulators” (CHEMOCENTRYX, INC., priority 2017, dated 2021).
